These results are taken from article PMC5564600 (Oncotarget, 2017).

Assay in all cases: biochemical
Holding throughout (format): binding

The target in test [1] is T1, panel of 442 kinases (Homo sapiens, UniProt P78368).
T1 construct: purchased Ambit Biosciences (scanMAXX KINOMEscan)
To be noted: CSNK1G2; for remaining activity at 1 µM: read-out: % of control at 1 µM.

Test [2] has as its target T2, panel of 442 kinases (Homo sapiens, UniProt O75914).
T2 construct: purchased Ambit Biosciences (scanMAXX KINOMEscan)
To be noted: kinase PAK3; for remaining activity at 1 µM: read-out: % of control at 1 µM.

In test [3] the target is T3, panel of 442 kinases (Homo sapiens, UniProt Q9NRM7).
T3 construct: purchased Ambit Biosciences (scanMAXX KINOMEscan)
T3 sequence (Q9NRM7 1-1088): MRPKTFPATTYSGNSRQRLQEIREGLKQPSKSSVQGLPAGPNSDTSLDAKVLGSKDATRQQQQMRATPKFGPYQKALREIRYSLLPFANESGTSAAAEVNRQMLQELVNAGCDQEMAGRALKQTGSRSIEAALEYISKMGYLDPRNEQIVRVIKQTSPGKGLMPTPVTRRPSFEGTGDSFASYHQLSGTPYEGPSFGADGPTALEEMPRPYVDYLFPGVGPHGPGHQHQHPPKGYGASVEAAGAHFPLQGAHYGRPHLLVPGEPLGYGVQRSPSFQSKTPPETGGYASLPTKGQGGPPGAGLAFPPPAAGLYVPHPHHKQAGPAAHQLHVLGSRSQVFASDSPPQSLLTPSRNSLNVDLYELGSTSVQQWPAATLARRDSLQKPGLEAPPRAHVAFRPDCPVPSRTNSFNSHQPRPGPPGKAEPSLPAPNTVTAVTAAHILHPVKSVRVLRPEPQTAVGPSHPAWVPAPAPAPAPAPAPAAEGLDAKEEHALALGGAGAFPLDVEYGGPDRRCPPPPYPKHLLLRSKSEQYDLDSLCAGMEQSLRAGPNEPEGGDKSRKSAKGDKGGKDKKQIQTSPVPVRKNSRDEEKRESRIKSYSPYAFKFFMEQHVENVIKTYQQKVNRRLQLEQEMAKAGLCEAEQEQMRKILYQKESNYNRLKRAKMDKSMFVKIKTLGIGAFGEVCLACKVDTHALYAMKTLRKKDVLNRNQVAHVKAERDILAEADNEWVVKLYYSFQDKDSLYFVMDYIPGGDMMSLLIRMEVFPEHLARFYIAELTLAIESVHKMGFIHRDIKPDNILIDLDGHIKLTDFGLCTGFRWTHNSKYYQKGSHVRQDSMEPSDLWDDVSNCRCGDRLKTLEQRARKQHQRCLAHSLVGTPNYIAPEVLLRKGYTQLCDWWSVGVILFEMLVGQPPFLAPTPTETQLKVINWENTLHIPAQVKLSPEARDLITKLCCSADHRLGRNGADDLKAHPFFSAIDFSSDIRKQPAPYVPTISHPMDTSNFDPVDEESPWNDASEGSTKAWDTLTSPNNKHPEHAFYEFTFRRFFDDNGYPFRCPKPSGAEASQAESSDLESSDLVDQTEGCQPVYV
The note with it: kinase LATS2; for remaining activity at 1 µM: read-out: % of control at 1 µM.

For test [4], the target named is T4, panel of 442 kinases (Homo sapiens, UniProt O15264).
T4 construct: purchased Ambit Biosciences (scanMAXX KINOMEscan)
T4 sequence (O15264 1-365): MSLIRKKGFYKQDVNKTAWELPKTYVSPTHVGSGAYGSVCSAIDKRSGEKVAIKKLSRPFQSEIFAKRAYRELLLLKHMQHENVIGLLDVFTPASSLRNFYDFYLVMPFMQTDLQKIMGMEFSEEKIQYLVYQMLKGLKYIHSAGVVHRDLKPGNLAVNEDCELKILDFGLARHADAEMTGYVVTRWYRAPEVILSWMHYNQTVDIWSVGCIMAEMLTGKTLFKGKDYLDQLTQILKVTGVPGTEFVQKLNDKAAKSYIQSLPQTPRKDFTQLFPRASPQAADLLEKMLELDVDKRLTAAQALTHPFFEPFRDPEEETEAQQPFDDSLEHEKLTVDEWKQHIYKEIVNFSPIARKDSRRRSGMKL
To be noted: kinase p38-delta; for remaining activity at 1 µM: read-out: % of control at 1 µM.

Test [5] concerns the target T5, panel of 442 kinases (Homo sapiens, UniProt P43403).
T5 construct: purchased Ambit Biosciences (scanMAXX KINOMEscan)
T5 sequence (P43403 1-619): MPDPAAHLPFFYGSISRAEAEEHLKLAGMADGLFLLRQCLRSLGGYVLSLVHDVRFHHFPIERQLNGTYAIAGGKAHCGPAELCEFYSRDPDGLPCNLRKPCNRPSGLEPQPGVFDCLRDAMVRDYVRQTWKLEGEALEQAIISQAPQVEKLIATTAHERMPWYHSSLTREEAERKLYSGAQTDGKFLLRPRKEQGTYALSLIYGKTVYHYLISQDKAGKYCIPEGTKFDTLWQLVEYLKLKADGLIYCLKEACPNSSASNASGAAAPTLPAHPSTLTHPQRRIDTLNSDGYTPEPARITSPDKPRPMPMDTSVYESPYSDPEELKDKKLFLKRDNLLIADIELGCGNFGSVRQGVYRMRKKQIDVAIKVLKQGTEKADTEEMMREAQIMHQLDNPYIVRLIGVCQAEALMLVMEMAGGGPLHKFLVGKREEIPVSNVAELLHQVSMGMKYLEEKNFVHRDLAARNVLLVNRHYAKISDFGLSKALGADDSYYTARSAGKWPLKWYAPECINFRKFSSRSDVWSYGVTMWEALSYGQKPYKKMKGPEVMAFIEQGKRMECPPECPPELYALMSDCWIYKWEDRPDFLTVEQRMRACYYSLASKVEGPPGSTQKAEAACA
To be noted: kinase ZAP70; for remaining activity at 1 µM: read-out: ZAP70 (% of control at 1 µM).

The target in test [6] is T6, panel of 442 kinases (Homo sapiens, UniProt Q9P0L2).
T6 construct: purchased Ambit Biosciences (scanMAXX KINOMEscan)
T6 sequence (Q9P0L2 whole entry): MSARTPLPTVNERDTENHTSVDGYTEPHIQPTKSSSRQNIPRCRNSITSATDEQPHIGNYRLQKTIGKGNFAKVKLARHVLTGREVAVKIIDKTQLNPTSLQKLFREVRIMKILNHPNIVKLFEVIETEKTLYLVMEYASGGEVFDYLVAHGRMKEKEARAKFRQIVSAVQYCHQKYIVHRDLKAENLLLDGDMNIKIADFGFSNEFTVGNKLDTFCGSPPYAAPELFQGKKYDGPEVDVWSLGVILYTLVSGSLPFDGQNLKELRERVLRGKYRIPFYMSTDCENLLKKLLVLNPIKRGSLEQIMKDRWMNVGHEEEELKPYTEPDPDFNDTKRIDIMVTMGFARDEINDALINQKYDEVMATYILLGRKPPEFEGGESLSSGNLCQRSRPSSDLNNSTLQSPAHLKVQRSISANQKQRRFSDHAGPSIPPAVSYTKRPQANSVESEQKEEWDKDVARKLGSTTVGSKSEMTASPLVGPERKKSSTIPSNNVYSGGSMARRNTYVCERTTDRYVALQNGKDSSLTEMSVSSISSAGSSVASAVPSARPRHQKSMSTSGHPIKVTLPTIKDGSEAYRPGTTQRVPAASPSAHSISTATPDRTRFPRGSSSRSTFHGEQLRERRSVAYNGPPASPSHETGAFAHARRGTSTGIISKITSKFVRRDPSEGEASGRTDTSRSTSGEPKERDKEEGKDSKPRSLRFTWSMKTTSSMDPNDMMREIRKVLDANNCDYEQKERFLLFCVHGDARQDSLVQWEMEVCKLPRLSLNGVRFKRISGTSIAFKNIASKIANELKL
The note with it: kinase MARK1; for remaining activity at 1 µM: read-out: % of control at 1 µM.

Setting [7] is: 10 µM, read-out: % of control at 10 µM.

T2 sequence (O75914 whole entry): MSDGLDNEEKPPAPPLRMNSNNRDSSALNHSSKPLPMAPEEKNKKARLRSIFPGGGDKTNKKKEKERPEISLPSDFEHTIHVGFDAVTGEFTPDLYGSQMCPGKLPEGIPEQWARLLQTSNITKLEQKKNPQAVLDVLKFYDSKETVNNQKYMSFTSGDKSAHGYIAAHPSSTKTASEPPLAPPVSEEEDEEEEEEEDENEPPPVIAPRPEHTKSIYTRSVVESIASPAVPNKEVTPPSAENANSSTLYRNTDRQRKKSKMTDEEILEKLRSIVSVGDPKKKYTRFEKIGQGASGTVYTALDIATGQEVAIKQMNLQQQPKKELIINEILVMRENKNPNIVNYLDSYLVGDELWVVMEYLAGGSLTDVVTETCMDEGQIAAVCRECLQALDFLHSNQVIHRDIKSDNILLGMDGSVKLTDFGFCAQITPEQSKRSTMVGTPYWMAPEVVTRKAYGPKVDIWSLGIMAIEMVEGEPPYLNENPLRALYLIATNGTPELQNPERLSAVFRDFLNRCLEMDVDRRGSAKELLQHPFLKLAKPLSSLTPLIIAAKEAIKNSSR
T1 sequence (P78368 whole entry): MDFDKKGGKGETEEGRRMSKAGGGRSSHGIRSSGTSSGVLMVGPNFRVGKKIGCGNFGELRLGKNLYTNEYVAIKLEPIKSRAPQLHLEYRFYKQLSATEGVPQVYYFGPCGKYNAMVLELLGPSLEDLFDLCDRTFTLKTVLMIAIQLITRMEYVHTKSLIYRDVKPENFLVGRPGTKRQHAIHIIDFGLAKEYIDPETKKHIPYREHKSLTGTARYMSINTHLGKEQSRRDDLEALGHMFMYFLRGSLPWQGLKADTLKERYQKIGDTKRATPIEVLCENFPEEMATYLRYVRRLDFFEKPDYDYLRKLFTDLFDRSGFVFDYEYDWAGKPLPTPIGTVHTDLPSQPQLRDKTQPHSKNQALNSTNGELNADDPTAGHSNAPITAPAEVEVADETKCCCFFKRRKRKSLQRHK

For `Nc1cc(C(F)(F)F)c(-c2cc(N3CCOCC3)nc(N3CCOCC3)n2)cn1` [Buparlisib], the remaining activity at 1 µM came to 100% at panel of 442 kinases [1]; 89% on panel of 442 kinases [2]; 75% at panel of 442 kinases [3]; 73% on panel of 442 kinases [4]; 100% at panel of 442 kinases [5]; 100% on panel of 442 kinases [6]. Besides, the remaining activity at 10 µM at panel of 442 kinases [1] (setting [7]) was 100%; on panel of 442 kinases [2] (setting [7]) it was 100%; at panel of 442 kinases [3] (setting [7]), 100%; on panel of 442 kinases [4] (setting [7]) it was 100%; on panel of 442 kinases [5] (10 µM, read-out: ZAP70 (% of control at 10 µM)) it was 100%; on panel of 442 kinases [6] (setting [7]), 100%.
As to `Cn1c(=O)n(-c2ccc(C(C)(C)C#N)cc2)c2c3cc(-c4cnc5ccccc5c4)ccc3ncc21` [Dactolisib, 2-methyl-2-[4-(3-methyl-2-oxo-8-quinolin-3-yl-2,3-dihydroimidazo[4,5-c]quinolin-1-yl)-phenyl] propionitrile], the remaining activity at 1 µM on panel of 442 kinases [1] was 80%; at panel of 442 kinases [2], 86%; at panel of 442 kinases [3] it was 100%; on panel of 442 kinases [4], 56%; at panel of 442 kinases [5] it was 99%; on panel of 442 kinases [6], 82%.
Take `FC(F)c1nc2ccccc2n1-c1nc(N2CCOCC2)nc(N2CCOCC2)n1` [ZSTK474, 2-(difluoromethyl)-1-[4,6-di(4-morpholinyl)-1,3,5-triazin-2-yl]-1H-benzimidazole]: the remaining activity at 1 µM on panel of 442 kinases [1] was 90%; at panel of 442 kinases [2], 73%; on panel of 442 kinases [3] it was 100%; on panel of 442 kinases [4] it was 100%; on panel of 442 kinases [5] it was 94%; on panel of 442 kinases [6] it was 98%.
`COc1ncc(-c2ccc3nccc(-c4ccnnc4)c3c2)cc1NS(=O)(=O)c1ccc(F)cc1F` [Omipalisib]: the remaining activity at 1 µM came out at 100% on panel of 442 kinases [1]; 100% on panel of 442 kinases [2]; 100% on panel of 442 kinases [3]; 94% on panel of 442 kinases [4]; 100% on panel of 442 kinases [5]; 100% on panel of 442 kinases [6].
